Laboratory results as given in ChEMBL document CHEMBL1201862, “PubChem BioAssay data set” (2004).
Active and inactive are the calls of the source.

Experiments:
cells = format: functional
[1] = AlphaScreen signal interference compounds, dose response, artefact control for ARNT-TACC3 interaction inhibitor project, biochemical, luminescence, cherry-pick (AID 651705); format: functional;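 also: AlphaScreen bead proximity signal that flags compounds interfering with the detection technology; potency reflects signal decrease which marks the compound as an assay artifact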
Beta-galactosidase = Beta-galactosidase (Escherichia coli, UniProt Q8VNN2); experiment: Dose response counterscreen for EBI2 assay utilizing the enzyme, b-galactosidase.; format: functional
[2] = HEp-2 cell cytotoxicity, dose response, cytotoxicity control for RSV inhibitor project, HTS (AID 2410); format: functional; conditions: human respiratory syncytial virus
[3] = inhibitors of intracellular T. cruzi replication, confirmation, NIH3T3 host cells, beta-gal luminescence (AID 2044); format: functional, cell-based;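 also: intracellular parasites grown in NIH/3T3 mouse fibroblasts as host cells; luminescent beta-galactosidase reporter signal from transgenic T. cruzi replicating inside host cells; inhibitors lower the luminescence signal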
[4] = cytotoxicity toward NIH3T3 fibroblasts, dose response, counter-screen, cell-based, ATP luminescence, mouse fibroblasts (AID 2010); format: functional;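 also: cells exposed to compound for about 90 hours before reading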
[5] = Luminescence Cell-Based Dose Retest to Confirm Inhibitors of Cancer Stem Cells. [Related pubchem assays (depositor defined):AID2717, AID2721]; format: functional; conditions: Homo sapiens
[6] = target: Heat shock protein HSP 90-alpha (Homo sapiens, UniProt P07900); format: functional, organism-based
HEK293 = experiment: cells; format: functional, cell-based; conditions: Homo sapiens
[7] = target: T1, Nuclear receptor subfamily 0 group B member 1 (Homo sapiens, UniProt P51843); experiment: Luminescence-based cell-based high throughput dose response assay for inhibitors of the orphan nuclear receptor subfamily 0, group B, member 1 (DAX1; NR0B1). [Related pubchem assays (depositor defined):AID504766, AID504790]; format: functional
T1 sequence (P51843 whole entry): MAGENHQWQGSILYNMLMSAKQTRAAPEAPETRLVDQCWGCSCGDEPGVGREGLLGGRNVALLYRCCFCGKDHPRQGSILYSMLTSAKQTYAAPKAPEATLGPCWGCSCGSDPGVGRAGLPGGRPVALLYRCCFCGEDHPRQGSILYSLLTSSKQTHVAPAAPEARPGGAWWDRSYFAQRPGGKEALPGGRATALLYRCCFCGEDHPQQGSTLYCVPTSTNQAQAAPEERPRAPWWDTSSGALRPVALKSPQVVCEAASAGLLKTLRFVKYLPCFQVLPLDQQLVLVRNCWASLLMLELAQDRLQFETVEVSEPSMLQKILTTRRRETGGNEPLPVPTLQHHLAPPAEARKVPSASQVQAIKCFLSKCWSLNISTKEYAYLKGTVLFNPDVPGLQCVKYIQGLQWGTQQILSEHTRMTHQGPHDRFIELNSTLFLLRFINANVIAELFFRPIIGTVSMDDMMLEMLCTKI

fMet-Leu-Phe receptor = target: T2, fMet-Leu-Phe receptor (Homo sapiens, UniProt P21462); experiment: FPR ligands, dose response (AID 519); format: functional
T2 sequence (P21462 whole entry): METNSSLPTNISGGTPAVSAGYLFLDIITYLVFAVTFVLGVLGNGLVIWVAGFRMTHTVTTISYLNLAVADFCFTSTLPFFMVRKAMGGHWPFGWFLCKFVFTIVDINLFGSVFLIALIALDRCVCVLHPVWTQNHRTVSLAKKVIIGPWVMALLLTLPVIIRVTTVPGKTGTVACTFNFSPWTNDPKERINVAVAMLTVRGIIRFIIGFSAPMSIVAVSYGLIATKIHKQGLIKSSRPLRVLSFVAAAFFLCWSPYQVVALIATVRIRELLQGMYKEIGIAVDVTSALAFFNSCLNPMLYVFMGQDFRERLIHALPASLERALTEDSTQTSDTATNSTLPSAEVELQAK

Fatty acid synthase [8] = target: T3, Fatty acid synthase (Homo sapiens, UniProt P49327); experiment: FAS thioesterase domain inhibitors, dose response, biochemical, endpoint fluorescence intensity, uHTS hits (AID 624327); format: functional;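 also: fluorescence from hydrolysis of an O-methyl fluorescein acyl ester substrate by the enzyme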
[9] = target: T4, Low molecular weight phosphotyrosine protein phosphatase (Homo sapiens, UniProt P24666); format: functional; conditions: read-out: IC50_Mean;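 also: Dose-response confirmation assay measuring inhibition of LMPTP enzyme activity by fluorescence intensity read-out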
T4 sequence (P24666 whole entry): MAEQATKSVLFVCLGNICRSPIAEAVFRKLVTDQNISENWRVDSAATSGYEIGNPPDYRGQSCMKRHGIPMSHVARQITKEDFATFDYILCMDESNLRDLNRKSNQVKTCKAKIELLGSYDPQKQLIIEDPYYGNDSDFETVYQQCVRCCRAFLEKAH

Fatty acid synthase [10] = target: T3, Fatty acid synthase; experiment: FAS thioesterase domain inhibitors, dose response, biochemical, kinetic fluorescence intensity (AID 624326); format: functional;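 also: rate of fluorescence rise from hydrolysis of a fluorogenic O-methyl fluorescein ester substrate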
Estrogen receptor = target: T5, Estrogen receptor (Homo sapiens, UniProt P03372);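 also: potency for inhibiting coactivator peptide recruitment to the receptor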
T5 sequence (P03372 whole entry): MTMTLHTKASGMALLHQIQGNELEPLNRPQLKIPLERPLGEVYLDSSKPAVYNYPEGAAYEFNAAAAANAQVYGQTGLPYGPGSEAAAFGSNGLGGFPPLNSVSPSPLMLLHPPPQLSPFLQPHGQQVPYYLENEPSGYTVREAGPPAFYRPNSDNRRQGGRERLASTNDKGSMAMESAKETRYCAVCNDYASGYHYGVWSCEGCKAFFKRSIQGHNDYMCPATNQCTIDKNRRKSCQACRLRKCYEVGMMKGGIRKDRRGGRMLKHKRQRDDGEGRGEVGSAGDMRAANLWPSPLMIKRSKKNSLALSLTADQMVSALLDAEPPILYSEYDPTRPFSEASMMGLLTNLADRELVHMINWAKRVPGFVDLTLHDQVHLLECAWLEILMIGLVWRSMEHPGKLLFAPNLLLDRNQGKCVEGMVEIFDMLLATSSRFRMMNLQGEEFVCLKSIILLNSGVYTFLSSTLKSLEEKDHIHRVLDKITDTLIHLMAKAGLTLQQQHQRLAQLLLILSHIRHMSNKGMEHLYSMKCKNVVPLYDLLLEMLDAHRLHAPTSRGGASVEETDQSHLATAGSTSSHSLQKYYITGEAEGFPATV

[11] = miR-122 activators in hepatoma reporter cells, dose response, cell-based, Huh7 psiCHECK-miR122, Renilla luciferase, cherry-picked (AID 651956); format: functional;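 also: huh7 hepatoma cells stably carrying a psiCHECK-2 miR-122 sensor plasmid; renilla luciferase signal reporting endogenous miR-122 activity after 48 h compound exposure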
[12] = microbe, parasite or virus in culture; format: functional; conditions: Mycobacterium tuberculosis
Cysteine protease ATG4B = target: T6, Cysteine protease ATG4B (Homo sapiens, UniProt Q9Y4P1); format: functional;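 also: Fluorescence-based dose-response confirmation assay measuring inhibition of ATG4B activity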
T6 sequence (Q9Y4P1 whole entry): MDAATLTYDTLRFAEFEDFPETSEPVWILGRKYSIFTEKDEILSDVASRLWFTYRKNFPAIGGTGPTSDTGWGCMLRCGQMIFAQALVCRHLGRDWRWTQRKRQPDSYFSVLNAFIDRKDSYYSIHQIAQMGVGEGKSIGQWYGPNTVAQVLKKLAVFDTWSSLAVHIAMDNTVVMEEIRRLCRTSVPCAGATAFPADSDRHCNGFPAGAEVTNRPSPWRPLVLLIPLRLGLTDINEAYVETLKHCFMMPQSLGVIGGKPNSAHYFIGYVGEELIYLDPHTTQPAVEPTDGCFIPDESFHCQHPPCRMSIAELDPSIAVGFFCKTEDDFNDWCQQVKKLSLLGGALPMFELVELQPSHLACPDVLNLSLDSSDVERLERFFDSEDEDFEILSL

Phospholipase A2 = Phospholipase A2 (Homo sapiens, UniProt P04054); format: functional;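 also: confirmatory dose-response counterscreen on phospholipase A2, testing hits that came from an ultra-high-throughput screen for ATG4B inhibitors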
Estrogen receptor beta [13] = target: T7, Estrogen receptor beta (Homo sapiens, UniProt Q92731);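 also: recombinant ER-beta bound to coactivator SRC1 peptide in presence of estradiol agonist; inhibitors block coactivator peptide binding and lower the FRET signal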
Estrogen receptor beta [14] = target: T7, Estrogen receptor beta; experiment: ERβ–SRC-3 coactivator interaction inhibitors, confirmation, orthogonal assay, biochemical, ELISA, streptavidin-HRP readout (AID 1060)
[15] = target: T8, Polyadenylate-binding protein 1 (Homo sapiens, UniProt P11940); experiment: PABP1 MLLE–PAM2 interaction inhibitors, dose response, miRNA deadenylation inhibitor project, biochemical, fluorescence polarization, Cy5-PAM2 peptide, secondary (AID 602260); format: functional; conditions: read-out: IC50_Mean
[16] = target: T8, Polyadenylate-binding protein 1; experiment: PABP1 MLLE–PAM2 binding inhibitor potency, dose response, biochemical, fluorescence polarization, FITC-PAM2 peptide (AID 602259); format: functional; conditions: read-out: IC50_Mean
HT-1080 = experiment: cytotoxicity in HT1080 fibrosarcoma cells, cell-based, fluorescence readout (AID 620); format: functional; conditions: Homo sapiens
Nonstructural protein 1 = Nonstructural protein 1 (Influenza A virus, UniProt Q194T2); format: functional, Influenza A virus (A/California/07/2009(H1N1))
[17] = HEK293T cytotoxicity, dose response, cytotoxicity control for miR-122 modulator project, cell-based, inhibitor set, cherry-pick, set 2 (AID 720697); format: functional
BJ [18] = experiment: cytotoxicity toward BJ-TERT fibroblasts, dose response, cell-based, RAS-independent, luminescence (AID 1933); format: functional; conditions: Homo sapiens
BJ [19] = experiment: cells; format: functional, cell-based; conditions: Homo sapiens
BJ [20] = experiment: cytotoxicity toward BJ-TERT-LT-ST fibroblasts, dose response, cell-based, RAS-independent, luminescence (AID 1935); format: functional; conditions: Homo sapiens;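 also: BJ fibroblasts immortalized with TERT plus LT and ST oncogenes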
[21] = cytotoxicity toward DRD oncogenic fibroblasts, dose response, cell-based, non-viral oncogenic, luminescence (AID 1934); format: functional; conditions: Homo sapiens
BJ [22] = experiment: cytotoxicity toward Ras-transformed BJeLR fibroblasts, dose response, cell-based, alamar blue fluorescence, cherrypicked samples (AID 2631); format: functional; conditions: Homo sapiens;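 also: confirmatory dose-response assay in RAS-dependent BJ fibroblasts engineered with TERT, LT and ST, with cytotoxicity read by fluorescence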
INS1 = experiment: beta cell apoptosis inhibitors, cytokine rescue, dose response, luminescence, retest (AID 449756); format: functional, cell-based; conditions: Rattus norvegicus;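 also: cell death triggered by IL-1 beta plus TNF-alpha plus IFN-gamma mixture; protective hits raise ATP signal compared with cytokine alone wells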
Melanocortin receptor 4 = Melanocortin receptor 4 (Homo sapiens, UniProt P32245); format: functional, cell-based;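 also: Cell-based assay with luminescence read-out, confirmatory dose-response testing for agonist activity of biased ligands at MC4R; human U2OS cells with tagged receptor and beta-arrestin; potency of agonists that increase receptor coupling to beta-arrestin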

Beta-galactosidase, sequence (Q8VNN2 whole entry): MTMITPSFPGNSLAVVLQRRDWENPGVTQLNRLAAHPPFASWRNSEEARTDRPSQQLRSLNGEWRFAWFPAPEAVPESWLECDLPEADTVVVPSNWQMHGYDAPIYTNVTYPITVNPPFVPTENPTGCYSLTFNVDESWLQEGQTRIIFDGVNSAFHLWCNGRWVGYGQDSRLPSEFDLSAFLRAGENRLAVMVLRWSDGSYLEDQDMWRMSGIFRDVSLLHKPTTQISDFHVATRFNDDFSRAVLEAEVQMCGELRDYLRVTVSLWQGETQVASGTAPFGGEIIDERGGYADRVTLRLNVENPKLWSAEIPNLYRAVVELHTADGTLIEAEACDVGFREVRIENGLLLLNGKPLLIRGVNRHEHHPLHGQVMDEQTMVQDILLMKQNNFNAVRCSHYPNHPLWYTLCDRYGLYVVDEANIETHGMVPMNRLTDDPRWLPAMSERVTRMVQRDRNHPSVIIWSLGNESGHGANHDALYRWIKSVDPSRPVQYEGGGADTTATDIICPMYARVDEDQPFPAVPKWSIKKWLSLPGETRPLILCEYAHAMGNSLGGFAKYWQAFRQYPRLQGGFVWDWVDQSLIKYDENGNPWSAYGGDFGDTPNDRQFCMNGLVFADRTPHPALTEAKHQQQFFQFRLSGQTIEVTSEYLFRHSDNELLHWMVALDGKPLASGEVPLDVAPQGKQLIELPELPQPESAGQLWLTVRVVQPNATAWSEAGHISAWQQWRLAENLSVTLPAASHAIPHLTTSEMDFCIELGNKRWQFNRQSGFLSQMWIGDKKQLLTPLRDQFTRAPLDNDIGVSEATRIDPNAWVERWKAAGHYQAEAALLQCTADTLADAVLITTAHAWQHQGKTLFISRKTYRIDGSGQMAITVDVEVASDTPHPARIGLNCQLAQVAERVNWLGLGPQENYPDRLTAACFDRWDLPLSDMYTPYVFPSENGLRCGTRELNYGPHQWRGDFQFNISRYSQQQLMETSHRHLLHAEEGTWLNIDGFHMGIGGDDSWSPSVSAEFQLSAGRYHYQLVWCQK
Phospholipase A2, sequence (P04054 whole entry): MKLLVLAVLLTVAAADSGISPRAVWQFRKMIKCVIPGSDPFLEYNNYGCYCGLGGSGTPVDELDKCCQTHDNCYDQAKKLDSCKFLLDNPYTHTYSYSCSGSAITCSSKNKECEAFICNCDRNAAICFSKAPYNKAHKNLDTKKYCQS
T3 sequence (P49327 whole entry, the tested form may be a part): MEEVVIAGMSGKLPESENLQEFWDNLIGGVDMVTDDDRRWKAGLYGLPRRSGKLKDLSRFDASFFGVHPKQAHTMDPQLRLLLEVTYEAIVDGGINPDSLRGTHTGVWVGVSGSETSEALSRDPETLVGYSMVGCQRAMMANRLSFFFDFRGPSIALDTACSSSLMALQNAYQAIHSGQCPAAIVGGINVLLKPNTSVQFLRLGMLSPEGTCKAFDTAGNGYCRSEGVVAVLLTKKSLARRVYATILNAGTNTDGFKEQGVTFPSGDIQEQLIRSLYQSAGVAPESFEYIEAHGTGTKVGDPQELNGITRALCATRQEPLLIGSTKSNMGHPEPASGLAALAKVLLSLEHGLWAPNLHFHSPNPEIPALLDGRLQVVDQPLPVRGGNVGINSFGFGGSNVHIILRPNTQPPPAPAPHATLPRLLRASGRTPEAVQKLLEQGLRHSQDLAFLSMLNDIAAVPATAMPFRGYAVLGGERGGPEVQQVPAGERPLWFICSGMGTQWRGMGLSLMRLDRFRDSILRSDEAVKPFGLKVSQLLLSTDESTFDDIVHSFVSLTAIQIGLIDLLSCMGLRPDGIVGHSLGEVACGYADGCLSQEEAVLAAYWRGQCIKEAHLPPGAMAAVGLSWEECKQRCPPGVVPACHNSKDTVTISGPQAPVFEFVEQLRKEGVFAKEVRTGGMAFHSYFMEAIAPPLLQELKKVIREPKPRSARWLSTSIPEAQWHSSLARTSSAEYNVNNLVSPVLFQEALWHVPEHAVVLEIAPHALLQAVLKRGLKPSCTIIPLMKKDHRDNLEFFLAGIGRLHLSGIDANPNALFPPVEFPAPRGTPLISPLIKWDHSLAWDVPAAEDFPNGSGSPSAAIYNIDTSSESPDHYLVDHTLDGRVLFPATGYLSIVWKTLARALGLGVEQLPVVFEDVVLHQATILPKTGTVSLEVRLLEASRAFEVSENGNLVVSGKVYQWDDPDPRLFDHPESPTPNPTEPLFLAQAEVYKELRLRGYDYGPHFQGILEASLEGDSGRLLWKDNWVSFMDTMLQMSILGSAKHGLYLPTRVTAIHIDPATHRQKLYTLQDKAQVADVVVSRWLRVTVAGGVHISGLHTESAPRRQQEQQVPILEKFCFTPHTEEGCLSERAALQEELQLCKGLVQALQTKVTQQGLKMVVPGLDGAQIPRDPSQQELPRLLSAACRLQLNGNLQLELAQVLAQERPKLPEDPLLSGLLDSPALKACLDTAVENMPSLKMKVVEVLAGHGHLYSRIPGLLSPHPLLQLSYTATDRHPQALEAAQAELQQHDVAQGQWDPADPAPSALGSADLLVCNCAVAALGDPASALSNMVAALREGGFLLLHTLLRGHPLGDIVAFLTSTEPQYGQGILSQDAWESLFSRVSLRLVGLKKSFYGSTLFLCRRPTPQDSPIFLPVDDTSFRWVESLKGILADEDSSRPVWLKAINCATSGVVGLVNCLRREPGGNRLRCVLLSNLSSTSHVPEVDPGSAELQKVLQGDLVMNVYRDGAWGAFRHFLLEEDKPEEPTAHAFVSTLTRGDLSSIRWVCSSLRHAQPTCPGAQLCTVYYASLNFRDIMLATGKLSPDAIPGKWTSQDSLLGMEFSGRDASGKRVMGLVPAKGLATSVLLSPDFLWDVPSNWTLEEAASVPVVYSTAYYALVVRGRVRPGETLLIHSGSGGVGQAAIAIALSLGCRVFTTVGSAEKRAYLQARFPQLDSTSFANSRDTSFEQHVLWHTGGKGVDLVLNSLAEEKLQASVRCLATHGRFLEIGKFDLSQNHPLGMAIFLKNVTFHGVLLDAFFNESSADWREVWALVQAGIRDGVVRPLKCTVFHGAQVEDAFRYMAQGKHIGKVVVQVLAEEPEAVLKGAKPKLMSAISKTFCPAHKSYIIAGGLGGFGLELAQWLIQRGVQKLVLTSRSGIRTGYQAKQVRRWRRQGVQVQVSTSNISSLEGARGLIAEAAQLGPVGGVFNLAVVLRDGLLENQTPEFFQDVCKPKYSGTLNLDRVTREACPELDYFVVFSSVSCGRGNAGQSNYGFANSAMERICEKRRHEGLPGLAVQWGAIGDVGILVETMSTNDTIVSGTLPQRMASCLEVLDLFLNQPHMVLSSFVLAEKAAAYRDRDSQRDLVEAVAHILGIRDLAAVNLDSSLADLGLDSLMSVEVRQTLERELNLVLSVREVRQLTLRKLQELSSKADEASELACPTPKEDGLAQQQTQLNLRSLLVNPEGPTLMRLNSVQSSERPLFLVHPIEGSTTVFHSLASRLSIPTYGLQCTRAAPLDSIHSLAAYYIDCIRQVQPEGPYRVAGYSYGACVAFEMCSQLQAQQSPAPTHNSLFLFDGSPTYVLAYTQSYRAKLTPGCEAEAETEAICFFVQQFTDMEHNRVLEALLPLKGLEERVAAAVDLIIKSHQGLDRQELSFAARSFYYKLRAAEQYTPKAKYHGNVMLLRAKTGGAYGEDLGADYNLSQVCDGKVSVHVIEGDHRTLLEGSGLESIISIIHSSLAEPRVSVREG
T8 sequence (P11940 whole entry): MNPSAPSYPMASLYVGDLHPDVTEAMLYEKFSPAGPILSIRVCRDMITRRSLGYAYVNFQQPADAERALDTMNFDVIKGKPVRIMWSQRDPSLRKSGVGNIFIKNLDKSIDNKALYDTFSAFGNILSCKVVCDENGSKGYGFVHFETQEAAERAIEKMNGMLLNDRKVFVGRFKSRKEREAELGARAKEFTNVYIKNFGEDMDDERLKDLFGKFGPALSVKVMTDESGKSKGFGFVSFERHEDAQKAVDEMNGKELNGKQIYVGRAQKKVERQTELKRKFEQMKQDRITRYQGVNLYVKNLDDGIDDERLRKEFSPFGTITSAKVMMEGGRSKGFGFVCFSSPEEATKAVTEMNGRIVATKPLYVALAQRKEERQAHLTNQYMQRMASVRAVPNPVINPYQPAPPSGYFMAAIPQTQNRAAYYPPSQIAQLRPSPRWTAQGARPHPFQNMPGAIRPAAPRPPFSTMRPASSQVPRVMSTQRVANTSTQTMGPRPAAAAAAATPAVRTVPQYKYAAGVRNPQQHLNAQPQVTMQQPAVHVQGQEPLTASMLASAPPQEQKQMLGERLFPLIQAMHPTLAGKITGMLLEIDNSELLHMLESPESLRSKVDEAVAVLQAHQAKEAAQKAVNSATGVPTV
T7 sequence (Q92731 whole entry): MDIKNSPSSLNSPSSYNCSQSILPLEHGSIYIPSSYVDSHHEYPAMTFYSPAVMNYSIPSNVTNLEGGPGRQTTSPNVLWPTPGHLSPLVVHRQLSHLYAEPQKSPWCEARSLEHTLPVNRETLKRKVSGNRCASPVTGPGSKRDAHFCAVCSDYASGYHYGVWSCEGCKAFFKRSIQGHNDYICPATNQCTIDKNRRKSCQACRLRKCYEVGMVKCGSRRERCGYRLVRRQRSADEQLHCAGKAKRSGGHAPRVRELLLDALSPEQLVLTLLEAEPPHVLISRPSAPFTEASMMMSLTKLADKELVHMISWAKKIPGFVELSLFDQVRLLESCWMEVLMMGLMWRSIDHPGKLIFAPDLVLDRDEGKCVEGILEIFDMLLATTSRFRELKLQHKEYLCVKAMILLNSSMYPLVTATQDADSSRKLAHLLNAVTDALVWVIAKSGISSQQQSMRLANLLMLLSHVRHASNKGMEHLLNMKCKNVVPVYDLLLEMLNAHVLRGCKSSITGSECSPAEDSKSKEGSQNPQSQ
Nonstructural protein 1, sequence (Q194T2 whole entry): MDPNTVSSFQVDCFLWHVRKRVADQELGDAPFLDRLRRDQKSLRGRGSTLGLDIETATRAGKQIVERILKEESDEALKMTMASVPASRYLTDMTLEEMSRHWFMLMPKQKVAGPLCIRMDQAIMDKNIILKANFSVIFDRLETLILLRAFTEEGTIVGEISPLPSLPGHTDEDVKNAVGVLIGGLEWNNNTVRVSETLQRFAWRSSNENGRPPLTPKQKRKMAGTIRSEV

## Clc1ccc(-c2ccc(CNCc3ccccn3)o2)cc1
cells
  IC50: 3.21 µM (active)
[1]
  AC50: 95.9 µM (active)

## O=C(/C=C/c1ccccc1)N1CCC(Cc2ccccc2)CC1
Beta-galactosidase
  IC50: > 80 µM (inactive)

## COc1ccccc1N(C(=O)c1ccncc1)c1nc(-c2ccc([N+](=O)[O-])cc2)cs1
[2]
  CC50: 29.6 µM (active)
[3]
  EC50: 0.448 µM (active)
[4]
  EC50: > 60 µM (inconclusive)
Beta-galactosidase
  IC50: > 80 µM (inactive)

## Cc1ccc(S(=O)(=O)N2CCN(C(=O)/C=C/c3ccccc3)CC2)cc1C
Beta-galactosidase
  IC50: > 80 µM (inactive)

## COc1cc(N=Nc2ccc3ccccc3c2)ccc1O
[2]
  CC50: 23.3 µM (active)
[5]
  AC50: 2.65 µM (active)
[6]
  AC50: 10.7 µM (active)
HEK293
  IC50: > 67.6 µM (inactive)
[7]
  IC50: > 67.6 µM (inactive)

## COc1ccc2cnn(-c3ccccc3)c(=O)c2c1OC
fMet-Leu-Phe receptor
  Ki: > 66.7 µM (inactive)

## O=S(=O)(c1ccccc1)c1nnn2c1nc(NC1CCN(Cc3ccccc3)CC1)c1ccccc12
Fatty acid synthase [8]
  IC50: 1.03 µM (active)
[9]
  IC50: 11.5 µM (active)
Fatty acid synthase [10]
  IC50: 0.793 µM (active)

## O=C(NCc1ccco1)c1cc2ccccc2c(=O)o1
Estrogen receptor
  IC50: 30.2 µM (not active)

## CNC(=O)C[C@@H]1CC[C@@H]2[C@H](COc3ccc(NC(=O)Nc4cccc(C)c4)cc3C(=O)N2C)O1
[11]
  AC50: 24.9 µM (active)

## COc1cccc(/C=N/NC(=O)c2cccs2)c1
HEK293
  IC50: > 67.5 µM (inactive)
[7]
  IC50: > 67.5 µM (inactive)

## Cc1cc(C)c2c(=O)n3c(nc2c1)C(Cc1ccccc1)NC(=O)c1cc2ccccc2cc1-3 (stereo not drawn)
Beta-galactosidase
  IC50: > 80 µM (inactive)

## O=C(NCc1ccc2c(c1)OCO2)c1c(O)nc2sccn2c1=O
[12]
  CC50: > 40 µM (active)
[9]
  IC50: 80 µM (inactive)

## O=C(O)/C=C/c1ccccc1Oc1ccc(Cl)cc1Cl
Cysteine protease ATG4B
  IC50: 11.5 µM (active)
Phospholipase A2
  IC50: 62.7 µM (inactive)

## COc1cc2c3c(c1)/C(=C1/SC(NC(C)=O)=NC1=O)C(=O)N3C(C)(C)C=C2C
Estrogen receptor beta [13]
  IC50: 3.37 µM (active)
Estrogen receptor beta [14]
  IC50: 96.2 µM (not active)
[15]
  IC50: > 66 µM (inactive)
[16]
  IC50: > 66 µM (inactive)
fMet-Leu-Phe receptor
  Ki: > 66.7 µM (inactive)

## Cc1cc(C)nc(NC(=O)CSc2nn(-c3ccccc3)c(=S)s2)n1
HEK293
  IC50: > 67.5 µM (inactive)
[7]
  IC50: > 67.5 µM (inactive)

## CC(C)(C)c1ccc(OCC(O)CSc2nc[nH]n2)cc1 (stereo not drawn)
HT-1080
  EC50: > 50 µM (not active)

## CC1CCN(c2nc(-c3ccccc3)c(C#N)c(=O)[nH]2)CC1
fMet-Leu-Phe receptor
  Ki: > 66.7 µM (inactive)

## CC(C)(C)OC(=O)[C@H](Cc1ccccc1)NC(=O)c1ncn2c1c(O)nc1ccc(Br)cc12
[9]
  IC50: 5.17 µM (active)

## Clc1ccc(OCCn2ccnc2)c(Cl)c1
HEK293
  IC50: > 67.5 µM (inactive)
[7]
  IC50: > 67.5 µM (inactive)

## O=C(COC(=O)c1cccc(O)c1)Nc1nnc(-c2ccccc2)o1
[1]
  AC50: 74.4 µM (active)

## O=C(CSc1nnc(-c2cccnc2)o1)Nc1nccs1
Nonstructural protein 1
  IC50: 10.9 µM (active)
[1]
  AC50: 129 µM (active)

## CCCc1ccc(S(=O)(=O)NCCc2ccncc2)cc1
[11]
  AC50: 34.1 µM (active)
[17]
  AC50: 8.02 µM (active)

## COc1ccccc1/C=C1\SC(=O)N(CCC(=O)NCCCn2ccnc2)C1=O
BJ [18]
  EC50: > 150 µM (not active)
BJ [19]
  EC50: > 150 µM (inconclusive)
BJ [20]
  EC50: > 150 µM (not active)
[21]
  EC50: > 150 µM (not active)
[5]
  AC50: 13.5 µM (active)
BJ [22]
  EC50: > 133 µM (inactive)
INS1
  AC50: 5.64 µM (active)

## CC(=O)Nc1cccc(C(=O)OCC(=O)Nc2nnc(-c3ccccc3)o2)c1
[1]
  AC50: 96.8 µM (active)

## COc1ccc2c(c1)C(c1ccc(C)o1)=NNC(c1ccccc1)=N2
Cysteine protease ATG4B
  IC50: 12.9 µM (active)
Phospholipase A2
  IC50: 8.91 µM (active)

## O=C(O)CC(CC(=O)Nc1ccc(F)c(Cl)c1)c1ccc(Cl)cc1Cl (stereo not drawn)
HEK293
  IC50: > 67.5 µM (inactive)
[7]
  IC50: > 67.5 µM (inactive)

## Cc1cc(C(=O)N2CCCC(C(=O)c3ccc(Oc4ccccc4)cc3)C2)[nH]n1 (stereo not drawn)
Cysteine protease ATG4B
  IC50: 28.3 µM (inactive)
Phospholipase A2
  IC50: 11.9 µM (active)

## COc1ccc(C(NC(=O)C2CCN(CCOc3ccc(Cl)cc3Cl)CC2)c2cccs2)cc1 (stereo not drawn)
Melanocortin receptor 4
  EC50: > 89.2 µM (inactive)
